Values quoted from earlier work in patent US20080302375A1 (priority 2003, published 2008).

Details: upon the smoking of a cigarette

CN1CCCC1c1cccnc1 (stereo not shown) [nicotine, 3-(1-methyl-2-pyrrolidinyl)-pyridine]
time for nicotine to reach the brain after inhalation: ten
